The values below come from patent US20240261237A1, “REDUCING SIDE EFFECTS OF NMDA RECEPTOR ANTAGONISTS” (Seelos Therapeutics, Inc., priority 2021, published 2024).

The test system of data set [1] is adults with major depressive disorder (MDD) at imminent risk of suicide. Description: Example 4 Phase 2 study: adverse events. Conditions: in vivo.
For data set [2] the test system is unchanged. Description: Example 4 Phase 2 study: STS-CMCM risk of suicide at this time. Format: in vivo, human. From the text:
(§1) The CMCM version of the S-STS (S-STS CMCM) has four parts, and can also provide a comprehensive description of suicidal ideation and behavior. See, e.g., Sheehan et al., Innov. Clin. Neurosci. Vol. 11, No. 9-10, pp. 93-140 (2014) The S-STS CMCM (version 01/01/19) is a clinician-rated outcome measure which assesses SI/B on multiple patient and clinician-rated items. It includes 13 suicidality items that are rated on a Likert-type scale ranging from “not at all” (0) to “extremely” (4), yielding a total score ranging from 0 to 52. The final 6 items are used only when the patient misses a visit and is unable to complete the scale; if that missed visit is due to attempted or completed suicide, the possible maximum score is […]. The CMCM also yields 5 different single-item global assessments: 1) subject-rated likelihood of a suicide attempt; 2) subject-rated treatment needed; 3) clinician global severity of suicidal impulses, thoughts, and behaviors; 4) clinician judgment of suicide risk at this time and level of management needed for suicidality; and 5) clinician judgment of subject's likelihood of making a suicide attempt or of dying by suicide in the next 7 days.
(§2) The secondary endpoints are the change from baseline at 24 hours, as well as at Day 16, in the following: • (1) PGIS-SI/B (Day 16 only) • (2) S-STS total score (Day 16 only) • (3) CGI of Change in SI/B (CGIC-SI/B) • (4) PGI of Change in SI/B (PGIC-SI/B) • (5) S-STS Clinician-Rated Global Severity of Suicidal Impulses, Thoughts, and Behaviors • (6) S-STS Clinician judgment of subject's risk of a suicide attempt or death by suicide at this time • (7) S-STS Clinician judgment of subject's likelihood (risk) of making a suicide attempt or of dying by suicide in the next 7 days • (8) S-STS Subject-rated global severity of suicidal impulses, thoughts, and behavior • (9) S-STS Subject-rated treatment needed score • (10) MADRS item 10 response rate (response≤3 units) • (11) MADRS response (total score ≥50% reduction from baseline) • (12) MADRS remission (total score ≤12)

Data set [3] shares this test system. As to the kind of experiment: Example 4 Phase 2 study: MADRS Total. Format: in vivo, human. Conditions: both subjects; 24 hours. From the text:
The Montgomery-Åsberg Depression Rating Scale (MADRS) is used to assess the severity of depression among subjects who have a diagnosis of depression. The MADRS includes 10 items and uses a 0 to 6 severity scale, scored following the interview. Higher scores indicate increasing depressive symptoms. Ratings can be added to form an overall score (range 0 to 60); no weights are used. Cut-off points include: 0 to 6—symptom absent, 7 to 19—mild depression, 20 to 34—moderate, 35 to 60—severe depression.
(§3) MADRS is a diagnostic questionnaire that can be used to measure the severity of a depressive episode in a subject. In some embodiments, the MADRS can be used to measure the severity of depressive symptoms in a subject, for example, a subject suffering from MDD, TRD, bipolar depression, and other psychiatric disorders described herein with a depression component. In some embodiments, the MADRS can be used to measure TRD. In some embodiments, the MADRS can be used to measure other psychiatric disorders, as described herein. […]

The conditions of data set [4]: in vivo; cited from earlier work.
For data set [5], the system named is adults with major depressive disorder (MDD) at imminent risk of suicide. Description: Example 4 Phase 2 study: MADRS item 10 (suicidality). Format: in vivo, human. Particulars: for MADRS item 10 score: 24 hours post-administration.
Description: as §3

For data set [6] the test system is unchanged. As to the kind of experiment: Example 4 Phase 2 study: STS-CMCM total score. Format: in vivo, human. Particulars: for STS mean score: baseline 21.9; for STS-CMCM score (range 0-52 units): 24 hours post-administration.
Description: The Sheehan Suicidality Tracking Scale (Sheehan-STS, S-STS) is a prospective rating scale that tracks both treatment-emergent suicidal ideation and behaviors. The Sheehan-STS is a scale with 14 core items and nine additional questions contingent on the core responses that can be administered either by a clinician or patient through self-report. Each item in the Sheehan-STS is scored on a 5-point Likert scale (0=not at all, 1=a little, 2-moderately, 3=very, and 4-extremely).
as §1, §2

Data set [7] shares this test system. Description: Example 4 Phase 2 study: CADSS (dissociation). Conditions: for CADSS change from baseline: at 40 minutes.
For data set [8] the test system is unchanged. Description: Example 4 Phase 2 study: STS-CMCM Risk of Suicide at Within the Next 7 Days. Type of data set: in vivo, human.
Description: as §1, §2

For data set [9] the test system is unchanged. As to the kind of experiment: Example 4 Phase 2 study: MOAA/S (sedation).
The next data set relates to subjects. Particulars: in vivo; cited from earlier work.
The test system of data set [10] is adults with major depressive disorder (MDD) at imminent risk of suicide. As to the kind of experiment: Example 4 Phase 2 study: C-SSRS. Conditions: 24 hours post-administration, baseline yes.

As for `CNC1(c2ccccc2Cl)CCCCC1=O` (racemic) [racemic ketamine, (R)-2-(2-chlorophenyl)-2-(methylamino)cyclohexanone and (S)-2-(2-chlorophenyl)-2-(methylamino)cyclohexanone], the serious adverse events result in data set [1] was “no serious adverse events were observed”. For the same compound, the “STS-CMCM score (range 0-9; risk of suicide at this time)” value is given as 3 units in data set [2] (Subject 1, 24 hours post-administration, baseline 7 units); 2 units in [2] (Subject 1, Day 9); 3 units in [2] (Subject 2, 24 hours post-administration, from 7 units); “zero” in [2] (Subject 2, Day 9); 2 units in data set [2] (both subjects, Day 8). The “reduction of MADRS Total” value in data set [3] is listed as greater than 50%. Further, in [4], the antidepressant properties result was “exhibit antidepressant properties”. The “MADRS item 10 score” value in [5] (Subject 1, baseline 5 units) is 0 units; in data set [5] (second subject (not named), baseline 5 units pre-dose) it was 0 units. Besides, the “sustained response (MADRS Item 10) after the final administration” value in data set [5] (with SOC) is listed as 15 days. The “patients with >14 points within-patient change from baseline in STS” value in data set [6] (Day 1) is on record as 94%. Moreover, the “patients with 4 points within-patient change in STS” value in data set [6] (Day 1, 1 patient) worked out at 6%. The STS mean score was 1.7 in data set [6] (Day 1), 0.0 in data set [6] (Day 16) and 0.0 in [6] (Day 29). The “STS-CMCM score (range 0-52 units)” value in [6] (Subject 1, from 18 units) was “zero”; in [6] (Subject 2, from 22 units), 3 units. For the same compound, the “subjects with no dissociation (CADSS)” value in data set [7] (Days 1 and 4, 7 subjects) is “four of the 7”. In data set [7] (after Day 4 (on Day 11 at 40 minutes), 7 subjects), this compound registered a subjects reporting dissociation of 1. The results for the “CADSS change from baseline” value in [7] (Day 4 (after second dose)), in data set [7] (Day 8 (after third dose)) and in [7] (after first dose) were 2.3, 0.4 and 3.8, respectively. Further, the sedation or dissociation result in data set [7] (entire patient cohort to the Day 29/30 endpoint) was “no clinically meaningful sedation or dissociation”. Moreover, the “STS-CMCM Risk of Suicide at Within the Next 7 Days score” value is on record as 2 units in data set [8] (Subject 1, 24 hours post-administration, from 5 units); 1 unit in data set [8] (Subject 2, 24 hours post-administration, baseline 7 units); 1 unit in [8] (the scores on Day 4); 0 units in data set [8] (the scores on Day 8). Also, in [9] (6-hour time-point on Day 4), the “MOAA/S score of the 1 subject with a score <5 units on subsequent dosing days” value amounted to 4 units. For the same compound, the “subjects with MOAA/S score of 5 units at all time-points” value in data set [9] (Day 1, 7 subjects) was 5 of 7. For the same compound, the “MOAA/S score, all subjects” value in [9] (Day 1, no one below) is no less than 4 units. The “movement during the anesthetic recovery phase / locomotor activity” value in the data set on subjects is given as “increased movement during the anesthetic recovery phase”. For the same compound, the “C-SSRS score for suicidal ideation (yes or no)” value in data set [10] (Subject 1) and in data set [10] (Subject 2) was “no” each time.

Turning to `NC1(c2ccccc2Cl)CCCC(O)C1=O` (stereo not shown) [6-hydroxynorketamine], in data set [4], the antidepressant properties result is listed as “exhibit antidepressant properties”. The “movement during the anesthetic recovery phase / locomotor activity” value with subjects is reported as “no anesthetic or locomotor activity”.

For `NC1(c2ccccc2Cl)CCCCC1=O` (stereo not shown) [norketamine], the “movement during the anesthetic recovery phase / locomotor activity” value in the data set on subjects is given as “increased movement during the anesthetic recovery phase”.
